# Source: PMC9401498 (Clinical Cancer Research, 2021)
# Tests used:
# glutamine = test: Plasma glutamine concentration; assay type: in vivo, human; settings: cycle 1, day 15 relative to predose on cycle 1, day 1; P = 0.0073; n = 6
# [1] = system: renal cell carcinoma (RCC); test: Antitumor activity by RECIST v1.1, RCC cohorts; assay type: in vivo, human
# tumor cell lines = settings: preclinical, several tumor cell lines; cited from earlier work
# [2] = All RCC (n = 28), number (percent) of efficacy evaluable patients
structure (smiles),measurement,setting,value
"O=C(Cc1cccc(OC(F)(F)F)c1)Nc1ccc(CCCCc2nnc(NC(=O)Cc3ccccn3)s2)nn1 [telaglenastat, Telaglenastat]",increase in plasma glutamine,glutamine,approximately 150%
same,Disease control rate (DCR),"[1]; 28 evaluable patients with RCC in both dose escalation and dose expansion, 14/28",50%
same,Best overall response: Partial response,[1]; [2],1 (3.6)
same,Best overall response: Progressive disease,[1]; [2],14 (50.0)
same,Best overall response: Stable disease,[1]; [2],13 (46.4)
same,reduction in target lesions,[1]; clear cell RCC patient with PR (800 mg BID),32%
same,patients with RCC remaining on study for more than 10 months,[1]; in vivo,Four
same,time on study,[1]; one clear cell patient with RCC,> 2.4 years
same,overall response rate,[1]; renal cell carcinoma,5%
same,antiproliferative activity,tumor cell lines,cytostatic and cytotoxic antiproliferative activity
